Test results: patent US7029657B2, “Nasal spray steroid formulation and method” (Balance Pharmaceuticals, Inc., priority 2002, dated 2006)

Experiments:
[1] = cited from earlier work
women with endometriosis = assay: Bone mineral density (BMD) of the lumbar spine by DEXA, ratio of 6 month to baseline; assay type: in vivo; settings: deslorelin alone, another study
Protocol: Women with endometriosis treated with intranasal deslorelin (a GnRH compound) were assigned to one of three methods of estradiol add-back: (1) 50 μg/day estradiol transdermal patch, (2) 300 μg/day intranasal estradiol, or (3) 300 μg/day intranasal estradiol with 275 μg/day intranasal testosterone. Loss of bone mineral density (BMD) is a known side effect of treatment with GnRH compounds. Thus, BMD of the lumbar spine (L1–L4) of the test subjects in Example 4 was obtained bydual-energy X-ray absorptiometry (DEXA) prior to and after six months of treatment. The results are shown in Table 4 as the ratio of BMD at the six month time point (BMD6mo.) to the BMD prior to treatment (BMDbaseline).
Women with endometriosis treated with intranasal deslorelin (GnRH compound) were assigned to one of three methods of add-back: (1) 50 μg/day estradiol transdermal patch, (2) 300 μg/day intranasal estradiol, or (3) 300 μg/day intranasal estradiol with 275 μg/day intranasal testosterone. Bone mineral density (BMD) of the lumbar spine was obtained by dual-energy X-ray absorptiometry (DEXA) prior to and after six months of drug treatment. BMD changes are shown in Table 4 as the ratio of the 6 month value compared to the baseline value.

| Compound | water solubility (at 25° C., g/100 mL) [1] [g/100 mL] | Ratio of 6 Month BMD to Baseline BMD, Mean (women with endometriosis) |
| --- | --- | --- |
| OC[C@H]1O[C@@H]2O[C@H]3[C@H](O)[C@@H](O)[C@@H](O[C@H]4[C@H](O)[C@@H](O)[C@@H](O[C@H]5[C@H](O)[C@@H](O)[C@@H](O[C@H]6[C@H](O)[C@@H](O)[C@@H](O[C@H]7[C@H](O)[C@@H](O)[C@@H](O[C@H]8[C@H](O)[C@@H](O)[C@@H](O[C@H]9[C@H](O)[C@@H](O)[C@@H](O[C@H]%10[C@H](O)[C@@H](O)[C@@H](O[C@H]1[C@H](O)[C@H]2O)O[C@@H]%10CO)O[C@@H]9CO)O[C@@H]8CO)O[C@@H]7CO)O[C@@H]6CO)O[C@@H]5CO)O[C@@H]4CO)O[C@@H]3CO [δ-cyclodextrin] | 8.19 | – |
| CCNC(=O)[C@@H]1CCCN1C(=O)[C@H](CCCN=C(N)N)NC(=O)[C@H](CC(C)C)NC(=O)[C@@H](Cc1c[nH]c2ccccc12)NC(=O)[C@H](Cc1ccc(O)cc1)NC(=O)[C@H](CO)NC(=O)[C@H](Cc1c[nH]c2ccccc12)NC(=O)[C@H](Cc1cnc[nH]1)NC(=O)[C@@H]1CCC(=O)N1 [Deslorelin (D), deslorelin] | – | 0.971 |
